The IC50 is the concentration at which inhibition is half-maximal.

Experiment [1] deals with TNF-α. As to the kind of experiment: IL-1β-induced TNF-α production from human PBMC. The class given is cell-based. The following applies: 50 ng/ml recombinant human IL-1β. The protocol: During the course of inflammatory diseases, TNF-α production is often stimulated by the cytokine 1L-1β, rather than by bacterially derived LPS. Compounds were tested for the ability to inhibit IL-1β-induced TNF-α production from human PBMC as described above for LPS-induced TNF-α production, except that the PBMC were isolated from source leukocyte units (Sera-Tec Biologicals, North Brunswick, NJ, USA) by centrifugation on Ficoll-Paque Plus (Amersham Pharmacia, Piscataway, NJ, USA), plated in 96-well tissue culture plates at 3 x 10^5 cells/well in RPMI-1640 medium (BioWhittaker, Walkersville, Maryland, USA) containing 10% heat-inactivated fetal bovine serum (Hyclone), 2 mM L-glutamine, 100 U/ml penicillin, and […] (complete medium), pretreated with compounds at 10, 2, 0.4, 0.08, 0.016, 0.0032, 0.00064, and 0 µM in duplicate at a final DMSO concentration of 0.1% at 37 °C in a humidified incubator at 5% CO2 for one hour, then stimulated with 50 ng/ml recombinant human IL-1β (Endogen) for 18 hours.

The test system of experiment [2] is TNF-α. As to the kind of experiment: Human Whole Blood LPS-induced TNF-α assay. The class given is cell-based. The protocol: The ability of compounds to inhibit LPS-induced-TNF-α production by human whole blood was measured essentially as described below for the LPS-induced TNF-α assay in human PBMC, except that freshly drawn whole blood was used instead of PBMC.
Lipopolysaccharide (LPS) is an endotoxin produced by gram-negative bacteria such as E. coli which induces production of many pro-inflammatory cytokines, including TNF-α. In peripheral blood mononuclear cells (PBMC), the TNF-α produced in response to LPS is derived from monocytes, which comprise approximately 5-20% of the total PBMC. Compounds were tested for the ability to inhibit LPS-induced TNF-α production from human PBMC as previously described (Muller et al., 1996, J. Med. Chem., 39:3238). PBMC from normal donors were obtained by Ficoll Hypaque (Pharmacia, Piscataway, NJ, USA) density centrifugation. Cells were cultured in RPMI (Life Technologies, Grand Island, NY, USA) supplemented with 10% AB± human serum (Gemini Bio-products, Woodland, CA, USA), 2 mM L-glutamine, 100 U/ml penicillin, and 100 µg/ml streptomycin (Life Technologies).
PBMC (2 x 10^5 cells) were plated in 96-well flat-bottom Costar tissue culture plates (Coming, NY, USA) in triplicate. Cells were stimulated with LPS (Sigma, St. Louis, MO, USA) at 100 ng/ml in the absence or presence of compounds. […]

For `CCOc1cc(C(CS(C)(=O)=O)N2C(=O)c3cccc(NC(C)=O)c3C2=O)ccc1OC` (single isomer, unassigned; (+)) [Compound A, (+)-2-[1-(3-ethoxy-4-methoxyphenyl)-2-methylsulfonylethyl]-4-acetylaminoisoindoline-1,3-dione], the IC50 with TNF-α [1] worked out at 83 nM; in the experiment with TNF-α [2], 294 nM.
